Measured values as given in US10045978B2 (AB SCIENCE, priority 2010, dated 2018).

Test system: patients with indolent forms of mastocytosis with handicap, D816V absent in at least one infiltrated organ
Experiment: Example 1 phase 2a study, response assessment
Type: in vivo, human
Set-up: Hamilton rating Δ Mean ± SD / QLQ-C30 Symptom Δ Mean ± SD / QLQ-C30 Global Health Δ Mean ± SD / AFIRMM Δ Mean ± SD / Hamilton rating ΔMean ± SD / QLQC30 Symptom ΔMean ± SD / QLQC30 Global Health ΔMean ± SD / AFIRMM ΔMean ± SD: scale not given here
Settings: for AFIRMM ΔMean ± SD / Flushes per day ΔMean ± SD / Hamilton rating ΔMean ± SD / Micturitions per day ΔMean ± SD / OPA Score Change: (2, 3, 4) to (0, 1) / OPA Score No change / Pruritus ΔMean ± SD / QLQC30 Functional ΔMean ± SD / QLQC30 Global Health ΔMean ± SD / QLQC30 Symptom ΔMean ± SD / Stools per day ΔMean ± SD: extension-phase cohort
Protocol: Eligible patients were aged >18 years, had previously documented indolent systemic, smoldering systemic or cutaneous mastocytosis as per the WHO classification with associated disability as the result of mast cell released mediators and had not responded to usual symptomatic treatments for more the 6 months. […] A single occurrence of this criterion was deemed sufficient for inclusion and so no systematic examination of multiple organs was carried out specifically for this study.
Patients were classified as having a handicap if after appropriate symptomatic treatments they fulfilled at least one of the following a priori criteria: number of flushes/day ≥1; pruritus score ≥6; number of stools ≥4/day; micturition frequency ≥8/day; Hamilton rating for depression ≥10; or EORTC quality-of-life questionnaire (QLQ-C30) symptom score, functional score, and global health status of >0. Patients were excluded if they experienced inadequate organ function defined via blood test levels, or an Eastern Cooperative Oncology Group performance status >2. Other exclusion criteria included: life expectancy <6 months, severe or uncontrolled medical disease, and patients who were pregnant or nursing.
In accordance to the AFIRMM study (Hermine O, et al., 2008, PLoS ONE. 3:e2266), evaluation of treatment response was based upon the change of clinical symptoms associated with a patient's handicaps at week 12 (W12) relative to baseline. Primary endpoints were daily frequency of flushes; pruritus score; and Hamilton rating for depression, as well as, daily stool and micturition frequencies; QLQ-C30 global health status, functional, and symptom scores. […] For those patients entering the extension phase, assessments were performed every 4 weeks for the first 3 months of extension, and every 12 weeks thereafter. Secondary endpoints included the W12 assessment of AFIRMM score (a validated questionnaire assessing the self-perceived severity of mastocytosis) (Hermine O, et al., 2008, PLoS ONE. 3:e2266); overall patient assessment (OPA) score; tryptase levels; and change in organ mast cell infiltration. Determination of D816V mutation and serum tryptase levels was conducted following procedures described previously (Hermine O, et al., 2008, PLoS ONE. 3:e2266). Overall clinical response analysis at W12 defined a responder as having an improvement of ≥50% in baseline handicap of a key response endpoint (Hamilton rating, flushes, or pruritus) without deterioration or emergence of handicap. Any patient with deterioration of ≥50% in any handicap, and/or with emergence of a new handicap with an increase of ≥50% from baseline was considered as worsening. Any patient who discontinued the study before W12 was considered a non responder. Discrimination between dose regimens was investigated by analyses of the ‘time to first response’, according to the initial dosage, and ‘dose at time of first response’ in key response endpoints.
Response analysis was performed on subgroups of the ITT population according to a patient's handicap at baseline and for whom response was evaluated at W12; referred to hereafter as the handicap-related population. No data imputation was implemented. The per protocol (PP) population was defined as a subset of a given handicap-related population, which in addition had presented no major protocol deviations. Summary response data are presented using descriptive statistics with mean improvement compared to baseline in each handicap cohort, regardless of disease classification. The appropriate Wilcoxon or Fisher tests were used for group comparison of baseline disease, demographic characteristics between dose level groups and response relative to baseline. Subpopulation analysis was also conducted according to initial c-Kit status.

Cc1ccc(NC(=O)c2ccc(CN3CCN(C)CC3)cc2)cc1Nc1nc(-c2cccnc2)cs1 [masitinib, 4-(4-methylpiperazin-1-ylmethyl)-N-[4-methyl-3-(4-pyridin-3ylthiazol-2-ylamino)phenyl]benzamide]
first response events: AFIRMM score (at 6.0 mg/kg/day): 5
first response events: Cumulative Frequency (at 6.0 mg/kg/day): 96%
first response events: Flush (at 6.0 mg/kg/day): 4
first response events: Hamilton (at 6.0 mg/kg/day): 4
first response events: Micturition (at 6.0 mg/kg/day): 1
first response events: OPA score (at 6.0 mg/kg/day): 4
first response events: Pruritus (at 6.0 mg/kg/day): 4
first response events: QLQ30 Functional (at 6.0 mg/kg/day): 1
first response events: QLQ30 Global (at 6.0 mg/kg/day): 2
first response events: QLQ30 Symptom (at 6.0 mg/kg/day): 1
first response events: Stool (at 6.0 mg/kg/day): 2
first response events: Total events (at 6.0 mg/kg/day): 28
first response events: Cumulative Frequency (at 7.5 mg/kg/day): 100%
first response events: Flush (at 7.5 mg/kg/day): 1
first response events: OPA score (at 7.5 mg/kg/day): 1
first response events: QLQ30 Symptom (at 7.5 mg/kg/day): 1
first response events: Total events (at 7.5 mg/kg/day): 3
AFIRMM ΔMean ± SD (W4): −44.5 ± 51.6
Flushes per day ΔMean ± SD (W4): −1.1 ± 1.8
Hamilton rating ΔMean ± SD (W4): −5.9 ± 3.2
Micturitions per day ΔMean ± SD (W4): −2.5 ± 3.3
OPA Score Change: (2, 3, 4) to (0, 1) (W4): 3 (18%)
OPA Score No change (W4): 14 (82%)
Pruritus ΔMean ± SD (W4): −2.8 ± 3.7
QLQC30 Functional ΔMean ± SD (W4): 8.7 ± 18.2
QLQC30 Global Health ΔMean ± SD (W4): 8.3 ± 25.5
QLQC30 Symptom ΔMean ± SD (W4): −4.1 ± 7.8
Stools per day ΔMean ± SD (W4): −4.3 ± 2.6
AFIRMM ΔMean ± SD (W12): −61.9 ± 45.9
Flushes per day ΔMean ± SD (W12): −1.6 ± 1.5
Hamilton rating ΔMean ± SD (W12): −4.6 ± 4.9
Micturitions per day ΔMean ± SD (W12): −5.4 ± 2.6
OPA Score Change: (2, 3, 4) to (0, 1) (W12): 3 (20%)
OPA Score No change (W12): 16 (80%)
Pruritus ΔMean ± SD (W12): −3.3 ± 3.0
QLQC30 Functional ΔMean ± SD (W12): 11.6 ± 16.4
QLQC30 Global Health ΔMean ± SD (W12): 16.1 ± 26.4
QLQC30 Symptom ΔMean ± SD (W12): −7.0 ± 15.2
Stools per day ΔMean ± SD (W12): −4.2 ± 3.0
AFIRMM ΔMean ± SD (W24): −66.0 ± 29.9
Flushes per day ΔMean ± SD (W24): −1.9 ± 3.1
Hamilton rating ΔMean ± SD (W24): −2.8 ± 9.2
Micturitions per day ΔMean ± SD (W24): −4.3 ± 5.9
OPA Score Change: (2, 3, 4) to (0, 1) (W24): 0 (0%)
OPA Score No change (W24): 3 (100%)
Pruritus ΔMean ± SD (W24): −5.1 ± 4.7
QLQC30 Functional ΔMean ± SD (W24): 15.3 ± 10.6
QLQC30 Global Health ΔMean ± SD (W24): 18.8 ± 27.5
QLQC30 Symptom ΔMean ± SD (W24): −19.9 ± 8.2
Stools per day ΔMean ± SD (W24): −2.5 ± 2.1
AFIRMM ΔMean ± SD (W36): −62.4 ± 31.8
Flushes per day ΔMean ± SD (W36): −2.1 ± 3.5
Hamilton rating ΔMean ± SD (W36): −10.3 ± 5.1
Micturitions per day ΔMean ± SD (W36): −6.5 ± 6.4
OPA Score Change: (2, 3, 4) to (0, 1) (W36): 1 (20%)
OPA Score No change (W36): 4 (80%)
Pruritus ΔMean ± SD (W36): −6.9 ± 3.5
QLQC30 Functional ΔMean ± SD (W36): 5.8 ± 16.7
QLQC30 Global Health ΔMean ± SD (W36): 21.7 ± 26.1
QLQC30 Symptom ΔMean ± SD (W36): −14.4 ± 6.5
Stools per day ΔMean ± SD (W36): −0.7 ± 3.2
AFIRMM ΔMean ± SD (W48): −64.3 ± 48.5
Flushes per day ΔMean ± SD (W48): −2.8 ± 2.9
Hamilton rating ΔMean ± SD (W48): −11.5 ± 6.4
Micturitions per day ΔMean ± SD (W48): −7.0 ± 2.8
OPA Score Change: (2, 3, 4) to (0, 1) (W48): 2 (33%)
OPA Score No change (W48): 4 (67%)
Pruritus ΔMean ± SD (W48): −5.2 ± 4.4
QLQC30 Functional ΔMean ± SD (W48): 0.7 ± 16.7
QLQC30 Global Health ΔMean ± SD (W48): 12.5 ± 14.7
QLQC30 Symptom ΔMean ± SD (W48): −10.3 ± 6.4
Stools per day ΔMean ± SD (W48): −2.0 ± 0.0
AFIRMM ΔMean ± SD (W60): −61.1 ± 32.9
Flushes per day ΔMean ± SD (W60): −2.3 ± 2.9
Hamilton rating ΔMean ± SD (W60): −8.3 ± 7.5
Micturitions per day ΔMean ± SD (W60): −6.0 ± 4.2
OPA Score Change: (2, 3, 4) to (0, 1) (W60): 4 (44%)
OPA Score No change (W60): 5 (56%)
Pruritus ΔMean ± SD (W60): −4.6 ± 4.3
QLQC30 Functional ΔMean ± SD (W60): 11.6 ± 11.2
QLQC30 Global Health ΔMean ± SD (W60): 23.1 ± 25.3
QLQC30 Symptom ΔMean ± SD (W60): −12.9 ± 8.3
Stools per day ΔMean ± SD (W60): −4.7 ± 2.9
